Marks after values point to notes of the source that are not given here.
Assays:
Format in all cases: cell-based, mouse
PKA = PKA activity in murine osteoblast (time-resolved fluorometry); settings: Fig.2
Description: According to the method by Johansen, et al. (Journal Bone and Mineral Research, Vol.7, pp.501-509, 1992), osteoblast was collected from the femoral bones of a female SLC : ICR mouse of age 15 weeks. Under anesthesia with pentobarbital sodium (25 mg/kg, intraperitoneal administration), postcava was cut to bleed and kill the animal to death. Then, bilateral femoral bones were resected. This bone was cut with a pair of bone scissors, to remove the bone marrow with a micro-loop. The inner face of the bone was rubbed off with a sharp blade. The resulting matter was agitated in a 10 % collagenase solution (Nitta gelatin) at 37 °C for 20 minutes, and to the resulting mixture was added a culture medium (an MEM culture medium supplemented with 10 % charcoal-treated bovine fetal serum; manufactured by Nissui Pharmaceutical, Co. Ltd.) prior to centrifugation (300×g, 5 minutes and 20 °C). The resulting cells were dispersed in a fresh culture medium and then inoculated on a plastic culture dish (diameter of 35 mm, Primaria (Falcon)). […] Osteoblast was identified by using alkali phosphatase staining as an osteoblast marker. For recovering osteoblast from an animal after ovariectomy, ovariectomy was carried out at age 11 weeks, and the animal was fed for the following 4 weeks, prior to the same treatment. 1×10^4 cells/ml osteoblast suspension (100 µl), a culture medium (890 µl) and a drug solution (10 µl) were added into each well of a plastic 24-well culture plate (Falcon), for culturing at 37 °C in 5 % CO2/95 % air for 24 hours, and then, the resulting culture was centrifuged (300 ×g, 5 minutes, 20°C) to recover the supernatant, which was defined as a cytokine assay sample. […] For experiments, furthermore, three dishes per each group were used. The osteoblast recovered by the method of the Experimental Example 1 was used. […] An enhancer reagent (100 µl) was added, for agitation at room temperature for 5 minutes, to determine the fluorescence intensity with a time-resolved fluorometer. Based on a preliminarily prepared standard curve, PKA activity was calculated.

murine osteoclast = assay: Frequency of occurrence of apoptosis in murine osteoclast; settings: 7 days, one hundred cells with two or more nuclei observed, control 4.0
Description: By a method according to the report by Takahashi et al. (Endocrinology, Vol.122, pp.1373-1382, 1988), osteoclast was prepared. More specifically, a female SLC:ICR mouse of age 7 weeks was bled and killed to death, under anesthesia with pentobarbital sodium (25 mg/kg, intraperitoneal administration), and from the mouse; her femoral bone was resected. Both the ends were cut, to rinse off the […] into α-MEM (Gibco) (1 ml). […] 0.5 ml of the cell suspension was inoculated in a 24-well microtiter plate. To the wells was added 100 ng/ml parathyroid hormone (Sigma Chemical Co.) for culturing in 5 % CO2/95 % air at 37 °C for 2 days. […] Herein, three plates were used per one concentration of each drug. […] After rinsing in PBS, the apoptosis cells were detected by using an ApopTagPlus Insitu Apoptosis Detection kit peroxidase (Oncor, Gaithersburg, MD, USA) and a TSA-direct kit (GreenFISH, NEN Life Science Products, Boston, MA). Simultaneously, the smear sample was stained with a 20 µg/ml propidium iodide (Sigma Chemical Co.) solution containing 50 U/ml RNase, at room temperature for 15 minutes, to stain the nucleus. One hundred cells with two or more nuclei were observed under a cofocal laser scanning type fluorescence microscope (MRC-1000, BioRad), to determine the number of apoptosis-positive cells developed: The results are shown in Table 5.

TNF-α = TNF-α release from murine osteoblast (culture supernatant cytokine assay); settings: 24 hours culture
Description: According to the method by Johansen, et al. (Journal Bone and Mineral Research, Vol.7, pp.501-509, 1992), osteoblast was collected from the femoral bones of a female SLC : ICR mouse of age 15 weeks. Under anesthesia with pentobarbital sodium (25 mg/kg, intraperitoneal administration), postcava was cut to bleed and kill the animal to death. Then, bilateral femoral bones were resected. This bone was cut with a pair of bone scissors, to remove the bone marrow with a micro-loop. The inner face of the bone was rubbed off with a sharp blade. The resulting matter was agitated in a 10 % collagenase solution (Nitta gelatin) at 37 °C for 20 minutes, and to the resulting mixture was added a culture medium (an MEM culture medium supplemented with 10 % charcoal-treated bovine fetal serum; manufactured by Nissui Pharmaceutical, Co. Ltd.) prior to centrifugation (300×g, 5 minutes and 20 °C). The resulting cells were dispersed in a fresh culture medium and then inoculated on a plastic culture dish (diameter of 35 mm, Primaria (Falcon)). At 37 °C in 5 % CO2/95% air, the cells were cultured for 24 hours, and the attached cells were recovered in a 0.25 % trypsin solution to prepare a cell suspension of 1×10^4 cells/ml. Osteoblast was identified by using alkali phosphatase staining as an osteoblast marker. For recovering osteoblast from an animal after ovariectomy, ovariectomy was carried out at age 11 weeks, and the animal was fed for the following 4 weeks, prior to the same treatment.
1×10^4 cells/ml osteoblast suspension (100 µl), a culture medium (890 µl) and a drug solution (10 µl) were added into each well of a plastic 24-well culture plate (Falcon), for culturing at 37 °C in 5 % CO2/95 % air for 24 hours, and then, the resulting culture was centrifuged (300 ×g, 5 minutes, 20°C) to recover the supernatant, which was defined as a cytokine assay sample. The final concentrations of the drug were 10^-11, 10^-10 and 10^-9 M. For experiments, furthermore, three dishes per each group were used.

IL-1β = IL-1β release from murine osteoblast (culture supernatant cytokine assay); settings: 24 hours culture
Description: Under anesthesia with pentobarbital sodium (25 mg/kg, intraperitoneal administration), postcava was cut to bleed and kill the animal to death. Then, bilateral femoral bones were resected. This bone was cut with a pair of bone scissors, to remove the bone marrow with a micro-loop. The inner face of the bone was rubbed off with a sharp blade. The resulting matter was agitated in a 10 % collagenase solution (Nitta gelatin) at 37 °C for 20 minutes, and to the resulting mixture was added a culture medium (an MEM culture medium supplemented with 10 % charcoal-treated bovine fetal serum; manufactured by Nissui Pharmaceutical, Co. Ltd.) prior to centrifugation (300×g, 5 minutes and 20 °C). The resulting cells were dispersed in a fresh culture medium and then inoculated on a plastic culture dish (diameter of 35 mm, Primaria (Falcon)). […] Osteoblast was identified by using alkali phosphatase staining as an osteoblast marker. For recovering osteoblast from an animal after ovariectomy, ovariectomy was carried out at age 11 weeks, and the animal was fed for the following 4 weeks, prior to the same treatment.
Dienogest as a test substance was dissolved and diluted in dimethylsulfoxide (DMSO, manufactured by Wako Pure Chemical Industries, Ltd.) for use. As a control substance, furthermore, MPA and danazol were used after they were dissolved and diluted in DMSO. DMSO was used as a solvent control.
The final concentrations of the drug were 10^-11, 10^-10 and 10^-9 M. For experiments, furthermore, three dishes per each group were used.
Using SMRART ™ (Pharmacia Biotech, Uppsala, Sweden), the supernatant was concentrated by about 10 fold, after the termination of culturing. The level of cytokine in the sample was assayed by using assay kits of murine IL-1β, IL-6 and TNF-α (Cytoscreen™, BioSource International, Camarillo, Calif. CA, USA) and europium-labeled streptoavidin (Pharmacia Biotech).

[1] = osteoblast of non-treated mouse, 10^-9 M, control 23.5
[2] = osteoblast of non-treated mouse, 10^-10 M, control 23.5
[3] = osteoblast of non-treated mouse, 10^-11 M, control 23.5
[4] = osteoblast of ovariectomized mouse, 10^-9 M, control 45.0
[5] = osteoblast of ovariectomized mouse, 10^-10 M, control 45.0
[6] = osteoblast of ovariectomized mouse, 10^-11 M, control 45.0
[7] = osteoblast of non-treated mouse, 10^-9 M, control 13.9
[8] = osteoblast of non-treated mouse, 10^-10 M, control 13.9
[9] = osteoblast of non-treated mouse, 10^-11 M, control 13.9
[10] = osteoblast of ovariectomized mouse, 10^-9 M, control 26.3
[11] = osteoblast of ovariectomized mouse, 10^-10 M, control 26.3
[12] = osteoblast of ovariectomized mouse, 10^-11 M, control 26.3
[13] = doses of 10^-11, 10^-10 and 10^-9 M

| SMILES | PKA activity in the murine osteoblast (PKA; at a concentration of 10^-9 M or more) | frequency of apoptosis occurrence in murine osteoclast (number of apoptosis-positive cells) (murine osteoclast; 10^-9 M) | frequency of apoptosis occurrence in murine osteoclast (number of apoptosis-positive cells) (murine osteoclast; 10^-10 M) | frequency of apoptosis occurrence in murine osteoclast (number of apoptosis-positive cells) (murine osteoclast; 10^-11 M) | TNF-α (TNF-α; [1]) | TNF-α (TNF-α; [2]) | TNF-α (TNF-α; [3]) | TNF-α (TNF-α; [4]) | TNF-α (TNF-α; [5]) | TNF-α (TNF-α; [6]) | IL-1β (IL-1β; [7]) | IL-1β (IL-1β; [8]) | IL-1β (IL-1β; [9]) | IL-1β (IL-1β; [10]) | IL-1β (IL-1β; [11]) | IL-1β (IL-1β; [12]) | PKA activity in the murine osteoblast (PKA; [13]) |
| --- | --- | --- | --- | --- | --- | --- | --- | --- | --- | --- | --- | --- | --- | --- | --- | --- | --- |
| C[C@]12CCC3=C4CCC(=O)C=C4CC[C@H]3[C@@H]1CC[C@@]2(O)CC#N [Dienogest, 17 α-cyanomethyl-17β-hydroxy-estra-4,9(10)-dien-3-one] | significantly enhanced | 16.3** | 5.0 | 3.7 | 14.8** pg/ml | 24.4 pg/mL | 24.7 pg/mL | 22.3** pg/ml | 29.8** pg/ml | 44.4 pg/mL | 12.0** pg/ml | 13.7 pg/mL | 14.4 pg/mL | 23.1** pg/ml | 23.8* pg/ml | 26.1 pg/mL | – |
| C#C[C@]1(O)CC[C@H]2[C@@H]3CCC4=Cc5oncc5C[C@]4(C)[C@H]3CC[C@@]21C [Danazol, danazol] | – | 3.3 | 3.7 | 4.0 | 26.1** pg/ml | 24.3 pg/mL | 24.0 pg/mL | 47.5** pg/ml | 45.3 pg/mL | 45.3 pg/mL | 15.4* pg/ml | 13.8 pg/mL | 13.6 pg/mL | 28.1** pg/ml | 26.0 pg/mL | 25.2 pg/mL | did not affect |
| CC(=O)O[C@]1(C(C)=O)CC[C@H]2[C@@H]3C[C@H](C)C4=CC(=O)CC[C@]4(C)[C@H]3CC[C@@]21C [MPA, medroxyprogesterone acetate] | – | 5.0 | 3.7 | 4.0 | 31.4** pg/ml | 25.3 pg/mL | 25.5 pg/mL | 47.6* pg/ml | 46.1 pg/mL | 44.6 pg/mL | 16.9* pg/ml | 14.4 pg/mL | 13.3 pg/mL | 30.2** pg/ml | 25.9 pg/mL | 26.3 pg/mL | did not affect |

From patent publication EP1043331A1, “BONE-RESORPTIVE CYTOKINE INHIBITOR CONTAINING DIENOGEST AS THE ACTIVE INGREDIENT” (MOCHIDA PHARMACEUTICAL CO., LTD., priority 1997, dated 1999)
